{"source": "patent US9861616B2", "about": "“Methods for treating respiratory diseases and formulations therefor” (priority 2013, dated 2018)", "format_in_all_cases": "cell-based", "key": {"P. aeruginosa (PA)": {"tested_on": "P. aeruginosa (PA)", "assay": "MIC by microdilution, 36 clinical and laboratory strains with known efflux phenotype", "procedure": "(§1) MICs of 36 clinical and laboratory strains of PA with known efflux phenotype are measured by microdilution in cation-adjusted Muller-Hinton broth (CA-MHB) or in RPMI medium (commonly used in eukaryotic cell culture). Phe-Arg-β-naphthylamide (PaβN, 50 mg/L) and EGTA 5 mM are used to inhibit efflux pumps and alter OM integrity, respectively. P. aeruginosa strain ATCC PAO1 is used as reference. PA12 is a clinical strain overexpressing the 4 main efflux systems (MexAB, MexCD, MexEF, MexXY), PA403 is a laboratory strain deleted in the genes coding for the 4 efflux systems. A series of reference strains or of clinical isolates for which the expression of genes coding for efflux pumps is known is also used for MICs determinations. MICs are measured by microdilution in MH broth or in RPMI medium (used for eukaryotic cells culture) supplemented with 10% of fetal calf serum, or in MH broth supplemented by increasing amounts of serum. EGTA (5 mM) was used as a chelating agent (disrupting outer membrane integrity) and PaβN (50 mg/L) as an unspecific efflux inhibitor."}, "P. aeruginosa PA12": {"tested_on": "P. aeruginosa PA12", "assay": "MIC by microdilution with PaβN or EGTA, clinical isolate overexpressing efflux pumps", "settings": "Pseudomonas aeruginosa", "procedure": "as §1"}, "P. aeruginosa PA403": {"tested_on": "P. aeruginosa PA403", "assay": "MIC by microdilution with PaβN or EGTA, efflux-deleted laboratory strain", "settings": "Pseudomonas aeruginosa, read-out: MIC", "procedure": "as §1, with “The compounds described herein are poor substrates of efflux pumps expressed in P. aeruginosa (PA). MICs of” for “MICs of”"}}, "note": "Read-outs that look alike come from different tables or passages of the source.", "data": [{"smiles": "CC[C@H]1OC(=O)[C@H](C)[C@@H](O[C@H]2C[C@@](C)(OC)[C@@H](O)[C@H](C)O2)[C@H](C)[C@@H](O[C@@H]2O[C@H](C)C[C@H](N(C)C)[C@H]2O)[C@](C)(O)C[C@@H](C)C(=O)[C@H](C)[C@@H](O)[C@]1(C)O", "note": "[ERY, erythromycin]", "values": [{"measurement": "MIC", "setting": "P. aeruginosa (PA); strain 1, efflux AB+, MHB", "value": 512, "unit": "µg/mL"}, {"measurement": "MIC", "setting": "P. aeruginosa (PA); strain 1, efflux AB+, RPMI", "value": 8, "unit": "µg/mL"}, {"measurement": "MIC", "setting": "P. aeruginosa (PA); strain 2, efflux CD+, MHB", "value": 512, "unit": "µg/mL"}, {"measurement": "MIC", "setting": "P. aeruginosa (PA); strain 3, efflux EF+, RPMI", "value": 8, "unit": "µg/mL"}, {"measurement": "MIC", "setting": "P. aeruginosa (PA); strain 4, efflux XY+, MHB", "value": 512, "unit": "µg/mL"}, {"measurement": "MIC", "setting": "P. aeruginosa (PA); strain 4, efflux XY+, RPMI", "value": 32, "unit": "µg/mL"}, {"measurement": "MIC", "setting": "P. aeruginosa (PA); strain 11, efflux AB + CD+, RPMI", "value": 16, "unit": "µg/mL"}, {"measurement": "MIC", "setting": "P. aeruginosa (PA); strain 12, efflux AB + CD + EF + XY+, MHB", "value": 512, "unit": "µg/mL"}, {"measurement": "MIC", "setting": "P. aeruginosa (PA); strain 12, efflux AB + CD + EF + XY+, RPMI", "value": 32, "unit": "µg/mL"}, {"measurement": "MIC", "setting": "P. aeruginosa (PA); strain 16, efflux AB + XY+, MHB", "value": 512, "unit": "µg/mL"}, {"measurement": "MIC", "setting": "P. aeruginosa (PA); strain 16, efflux AB + XY+, RPMI", "value": 32, "unit": "µg/mL"}, {"measurement": "MIC", "setting": "P. aeruginosa (PA); strain 21, efflux AB+, MHB", "value": 512, "unit": "µg/mL"}, {"measurement": "MIC", "setting": "P. aeruginosa (PA); strain 21, efflux AB+, RPMI", "value": 64, "unit": "µg/mL"}, {"measurement": "MIC", "setting": "P. aeruginosa (PA); strain 22, efflux XY+, MHB", "value": 512, "unit": "µg/mL"}, {"measurement": "MIC", "setting": "P. aeruginosa (PA); strain 22, efflux XY+, RPMI", "value": 32, "unit": "µg/mL"}, {"measurement": "MIC", "setting": "P. aeruginosa (PA); strain 40, efflux EF+, RPMI", "value": 32, "unit": "µg/mL"}, {"measurement": "MIC", "setting": "P. aeruginosa (PA); strain 41, efflux CD+, MHB", "value": 512, "unit": "µg/mL"}, {"measurement": "MIC", "setting": "P. aeruginosa (PA); strain 41, efflux CD+, RPMI", "value": 64, "unit": "µg/mL"}, {"measurement": "MIC", "setting": "P. aeruginosa (PA); strain 48, efflux CD + EF + XY+, MHB", "value": 512, "unit": "µg/mL"}, {"measurement": "MIC", "setting": "P. aeruginosa (PA); strain 48, efflux CD + EF + XY+, RPMI", "value": 64, "unit": "µg/mL"}, {"measurement": "MIC", "setting": "P. aeruginosa (PA); strain 49, efflux CD + EF + XY+, MHB", "value": 512, "unit": "µg/mL"}, {"measurement": "MIC", "setting": "P. aeruginosa (PA); strain 49, efflux CD + EF + XY+, RPMI", "value": 64, "unit": "µg/mL"}, {"measurement": "MIC", "setting": "P. aeruginosa (PA); strain 63, efflux AB + EF + XY+, MHB", "value": 512, "unit": "µg/mL"}, {"measurement": "MIC", "setting": "P. aeruginosa (PA); strain 63, efflux AB + EF + XY+, RPMI", "value": 64, "unit": "µg/mL"}, {"measurement": "MIC", "setting": "P. aeruginosa (PA); strain 68, efflux AB + XY+, MHB", "value": 512, "unit": "µg/mL"}, {"measurement": "MIC", "setting": "P. aeruginosa (PA); strain 68, efflux AB + XY+, RPMI", "value": 64, "unit": "µg/mL"}, {"measurement": "MIC", "setting": "P. aeruginosa (PA); strain 133, efflux EF + XY+, MHB", "value": 512, "unit": "µg/mL"}, {"measurement": "MIC", "setting": "P. aeruginosa (PA); strain 133, efflux EF + XY+, RPMI", "value": 64, "unit": "µg/mL"}, {"measurement": "MIC", "setting": "P. aeruginosa (PA); strain 156, efflux EF + XY+, MHB", "value": 512, "unit": "µg/mL"}, {"measurement": "MIC", "setting": "P. aeruginosa (PA); strain 156, efflux EF + XY+, RPMI", "value": 16, "unit": "µg/mL"}, {"measurement": "MIC", "setting": "P. aeruginosa (PA); strain 168B, efflux CD + XY+, MHB", "value": 512, "unit": "µg/mL"}, {"measurement": "MIC", "setting": "P. aeruginosa (PA); strain 207, efflux AB + EF + XY+, MHB", "value": 512, "unit": "µg/mL"}, {"measurement": "MIC", "setting": "P. aeruginosa (PA); strain 266B, efflux AB + CD+, MHB", "value": 512, "unit": "µg/mL"}, {"measurement": "MIC", "setting": "P. aeruginosa (PA); strain 266B, efflux AB + CD+, RPMI", "value": 64, "unit": "µg/mL"}, {"measurement": "MIC", "setting": "P. aeruginosa (PA); strain 333A, efflux AB + EF+, MHB", "value": 512, "unit": "µg/mL"}, {"measurement": "MIC", "setting": "P. aeruginosa (PA); strain 333A, efflux AB + EF+, RPMI", "value": 64, "unit": "µg/mL"}, {"measurement": "MIC", "setting": "P. aeruginosa (PA); strain 335, efflux AB + EF+, MHB", "value": 512, "unit": "µg/mL"}, {"measurement": "MIC", "setting": "P. aeruginosa (PA); strain 335, efflux AB + EF+, RPMI", "value": 64, "unit": "µg/mL"}, {"measurement": "MIC", "setting": "P. aeruginosa (PA); strain 391, efflux EF−, RPMI", "value": 32, "unit": "µg/mL"}, {"measurement": "MIC", "setting": "P. aeruginosa (PA); strain 392, efflux CD−, RPMI", "value": 16, "unit": "µg/mL"}, {"measurement": "MIC", "setting": "P. aeruginosa (PA); strain 394, efflux XY−, MHB", "value": 512, "unit": "µg/mL"}, {"measurement": "MIC", "setting": "P. aeruginosa (PA); strain 394, efflux XY−, RPMI", "value": 32, "unit": "µg/mL"}, {"measurement": "MIC", "setting": "P. aeruginosa (PA); strain 395, efflux HI−, RPMI", "value": 32, "unit": "µg/mL"}, {"measurement": "MIC", "setting": "P. aeruginosa (PA); strain 396, ompH−, RPMI", "value": 16, "unit": "µg/mL"}, {"measurement": "MIC", "setting": "P. aeruginosa (PA); strain 397, efflux AB−, MHB", "value": 16, "unit": "µg/mL"}, {"measurement": "MIC", "setting": "P. aeruginosa (PA); strain 397, efflux AB−, RPMI", "value": 2, "unit": "µg/mL"}, {"measurement": "MIC", "setting": "P. aeruginosa (PA); strain 398, efflux CD−, MHB", "value": 16, "unit": "µg/mL"}, {"measurement": "MIC", "setting": "P. aeruginosa (PA); strain 398, efflux CD−, RPMI", "value": 4, "unit": "µg/mL"}, {"measurement": "MIC", "setting": "P. aeruginosa (PA); strain 399, efflux AB − EF−, MHB", "value": 16, "unit": "µg/mL"}, {"measurement": "MIC", "setting": "P. aeruginosa (PA); strain 399, efflux AB − EF−, RPMI", "value": 4, "unit": "µg/mL"}, {"measurement": "MIC", "setting": "P. aeruginosa (PA); strain 400, efflux XY−, MHB", "value": 16, "unit": "µg/mL"}, {"measurement": "MIC", "setting": "P. aeruginosa (PA); strain 400, efflux XY−, RPMI", "value": 4, "unit": "µg/mL"}, {"measurement": "MIC", "setting": "P. aeruginosa (PA); strain 401, ompH−, MHB", "value": 8, "unit": "µg/mL"}, {"measurement": "MIC", "setting": "P. aeruginosa (PA); strain 401, ompH−, RPMI", "value": 4, "unit": "µg/mL"}, {"measurement": "MIC", "setting": "P. aeruginosa (PA); strain 403, efflux AB − CD − EF − XY−, MHB", "value": 16, "unit": "µg/mL"}, {"measurement": "MIC", "setting": "P. aeruginosa (PA); strain 403, efflux AB − CD − EF − XY−, RPMI", "value": 4, "unit": "µg/mL"}, {"measurement": "MIC", "setting": "P. aeruginosa (PA); strain 405, efflux AB − CD − EF − XY−, MHB", "value": 8, "unit": "µg/mL"}, {"measurement": "MIC", "setting": "P. aeruginosa (PA); strain 405, efflux AB − CD − EF − XY−, RPMI", "value": 4, "unit": "µg/mL"}, {"measurement": "MIC", "setting": "P. aeruginosa (PA); strain 434, efflux AB + CD + XY+, MHB", "value": 512, "unit": "µg/mL"}, {"measurement": "MIC", "setting": "P. aeruginosa (PA); strain PAO1, REFERENCE, MHB", "value": 512, "unit": "µg/mL"}, {"measurement": "MIC", "setting": "P. aeruginosa (PA); strain PAO1, REFERENCE, RPMI", "value": 32, "unit": "µg/mL"}, {"measurement": "MIC", "setting": "P. aeruginosa PA12; PA12, PA12, CA-MHB, EGTA 5 mM", "value": 512, "unit": "µg/mL"}, {"measurement": "MIC", "setting": "P. aeruginosa PA12; PA12, PA12, CA-MHB, PaβN 50 mg/L", "value": 32, "unit": "µg/mL"}, {"measurement": "MIC", "setting": "P. aeruginosa PA12; PA12, PA12, CA-MHB, control conditions (CT)", "value": 512, "unit": "µg/mL"}, {"measurement": "MIC", "setting": "P. aeruginosa PA12; PA12, PA12, RPMI, EGTA 5 mM", "value": 2, "unit": "µg/mL"}, {"measurement": "MIC", "setting": "P. aeruginosa PA12; PA12, PA12, RPMI, PaβN 50 mg/L", "value": 32, "unit": "µg/mL"}, {"measurement": "MIC", "setting": "P. aeruginosa PA12; PA12, PA12, RPMI, control conditions (CT)", "value": 32, "unit": "µg/mL"}, {"measurement": "MIC", "setting": "P. aeruginosa PA403; PA403, P403, CA-MHB, EGTA 5 mM", "value": 16, "unit": "µg/mL"}, {"measurement": "MIC", "setting": "P. aeruginosa PA403; PA403, P403, CA-MHB, control conditions (CT)", "value": 16, "unit": "µg/mL"}, {"measurement": "MIC", "setting": "P. aeruginosa PA403; PA403, P403, RPMI, EGTA 5 mM", "value": 0.5, "unit": "µg/mL"}, {"measurement": "MIC", "setting": "P. aeruginosa PA403; PA403, P403, RPMI, PaβN 50 mg/L", "value": 4, "unit": "µg/mL"}, {"measurement": "MIC", "setting": "P. aeruginosa PA403; PA403, P403, RPMI, control conditions (CT)", "value": 4, "unit": "µg/mL"}]}]}
